Assay results: ChEMBL document CHEMBL3885881, “DrugMatrix”

Species on record: Rattus norvegicus
Assay: DrugMatrix - Regimen: Daily Repeat
Format: toxicity, organism-based, Sprague-Dawley
Design: regimen Daily Repeat, gender Male, age 6-8 weeks
Details: in vivo, iv, vehicle 100 % SALINE; for ALANINE AMINOTRANSFERASE / ALBUMIN / ALKALINE PHOSPHATASE / ASPARTATE AMINOTRANSFERASE / BLOOD UREA NITROGEN / CARBON DIOXIDE / CHLORIDE / CHOLESTEROL / CREATINE PHOSPHOKINASE / CREATININE / GLUCOSE / LACTATE DEHYDROGENASE / LIPASE / PHOSPHORUS / POTASSIUM / SODIUM / TOTAL BILIRUBIN / TOTAL PROTEIN / URIC ACID: tissue Plasma; for ABSOLUTE BASOPHIL / ABSOLUTE EOSINOPHIL / ABSOLUTE LYMPHOCYTE / ABSOLUTE MONOCYTE / ABSOLUTE SEGMENTED NEUTROPHIL / BASOPHIL / EOSINOPHIL / ERYTHROCYTE COUNT / HEMATOCRIT / HEMOGLOBIN / LEUKOCYTE COUNT / LYMPHOCYTE / MEAN CORPUSCULAR HEMOGLOBIN / MEAN CORPUSCULAR HEMOGLOBIN CONCENTRATION / MEAN CORPUSCULAR VOLUME / MONOCYTE / NEUTROPHIL / NUCLEATED RED BLOOD CELLS / PLATELET COUNT: tissue Blood
[1] = 1200 mg/kg, 72 h, dose level M1, time 3 day
[2] = 1200 mg/kg, 120 h, dose level M1, time 5 day
[3] = 1800 mg/kg, 72 h, dose level High, time 3 day

NC(CO)(CO)CO [TROMETHAMINE]
ALANINE AMINOTRANSFERASE [1]: 48.67 u/L | ALBUMIN [1]: 4.2 G/DL | ALKALINE PHOSPHATASE [1]: 396.33 u/L | ASPARTATE AMINOTRANSFERASE [1]: 124 u/L | BLOOD UREA NITROGEN [1]: 14.67 mg/dL | CARBON DIOXIDE [1]: 28 mmol/L | CHLORIDE [1]: 101.67 MEQ/L | CHOLESTEROL [1]: 82 mg/dL | CREATINE PHOSPHOKINASE [1]: 177.33 u/L | CREATININE [1]: 0.16 mg/dL | GLUCOSE [1]: 166.33 mg/dL | LACTATE DEHYDROGENASE [1]: 103 u/L | LIPASE [1]: 8.33 u/L | PHOSPHORUS [1]: 11.1 mg/dL | POTASSIUM [1]: 5.72 MEQ/L | SODIUM [1]: 148.3 MEQ/L | TOTAL BILIRUBIN [1]: 0.1 mg/dL | TOTAL PROTEIN [1]: 6.23 G/DL | URIC ACID [1]: 0.7 mg/dL | ABSOLUTE BASOPHIL [2]: 0 CELLS/uL | ABSOLUTE EOSINOPHIL [2]: 321 CELLS/uL | ABSOLUTE LYMPHOCYTE [2]: 13922 CELLS/uL | ABSOLUTE MONOCYTE [2]: 0 CELLS/uL | ABSOLUTE SEGMENTED NEUTROPHIL [2]: 2357 CELLS/uL | BASOPHIL [2]: 0% | EOSINOPHIL [2]: 2% | ERYTHROCYTE COUNT [2]: 5.71 x10E6/uL | HEMATOCRIT [2]: 35.9% | HEMOGLOBIN [2]: 13.45 G/DL | LEUKOCYTE COUNT [2]: 16.6 x10E3/uL | LYMPHOCYTE [2]: 84% | MEAN CORPUSCULAR HEMOGLOBIN [2]: 23.6 pg | MEAN CORPUSCULAR HEMOGLOBIN CONCENTRATION [2]: 37.45 G/DL | MEAN CORPUSCULAR VOLUME [2]: 62.95 fL | MONOCYTE [2]: 0% | NEUTROPHIL [2]: 14% | NUCLEATED RED BLOOD CELLS [2]: 0 /100WBC | PLATELET COUNT [2]: 1326 x10E3/uL | ALANINE AMINOTRANSFERASE [2]: 51.5 u/L | ALBUMIN [2]: 4.3 G/DL | ALKALINE PHOSPHATASE [2]: 460.5 u/L | ASPARTATE AMINOTRANSFERASE [2]: 147 u/L | BLOOD UREA NITROGEN [2]: 19.5 mg/dL | CARBON DIOXIDE [2]: 26.5 mmol/L | CHLORIDE [2]: 105.5 MEQ/L | CHOLESTEROL [2]: 61.5 mg/dL | CREATINE PHOSPHOKINASE [2]: 173 u/L | CREATININE [2]: 0.2 mg/dL | GLUCOSE [2]: 161 mg/dL | LACTATE DEHYDROGENASE [2]: 131.5 u/L | LIPASE [2]: 7.5 u/L | PHOSPHORUS [2]: 12.6 mg/dL | POTASSIUM [2]: 5.85 MEQ/L | SODIUM [2]: 148.4 MEQ/L | TOTAL BILIRUBIN [2]: 0.15 mg/dL | TOTAL PROTEIN [2]: 6.15 G/DL | URIC ACID [2]: 1.35 mg/dL | ABSOLUTE BASOPHIL [3]: 0 CELLS/uL | ABSOLUTE EOSINOPHIL [3]: 0 CELLS/uL | ABSOLUTE LYMPHOCYTE [3]: 11188.5 CELLS/uL | ABSOLUTE MONOCYTE [3]: 305.5 CELLS/uL | ABSOLUTE SEGMENTED NEUTROPHIL [3]: 3356 CELLS/uL | BASOPHIL [3]: 0% | EOSINOPHIL [3]: 0% | ERYTHROCYTE COUNT [3]: 5.2 x10E6/uL | HEMATOCRIT [3]: 31.8% | HEMOGLOBIN [3]: 12.25 G/DL | LEUKOCYTE COUNT [3]: 14.85 x10E3/uL | LYMPHOCYTE [3]: 75% | MEAN CORPUSCULAR HEMOGLOBIN [3]: 23.65 pg | MEAN CORPUSCULAR HEMOGLOBIN CONCENTRATION [3]: 38.5 G/DL | MEAN CORPUSCULAR VOLUME [3]: 61.4 fL | MONOCYTE [3]: 2% | NEUTROPHIL [3]: 23% | NUCLEATED RED BLOOD CELLS [3]: 0 /100WBC | PLATELET COUNT [3]: 1215.5 x10E3/uL | ALANINE AMINOTRANSFERASE [3]: 64.5 u/L | ALBUMIN [3]: 4.05 G/DL | ALKALINE PHOSPHATASE [3]: 290 u/L | ASPARTATE AMINOTRANSFERASE [3]: 190 u/L | BLOOD UREA NITROGEN [3]: 19.5 mg/dL | CARBON DIOXIDE [3]: 24.5 mmol/L | CHLORIDE [3]: 105.5 MEQ/L | CHOLESTEROL [3]: 107 mg/dL | CREATINE PHOSPHOKINASE [3]: 336.5 u/L | CREATININE [3]: 0.22 mg/dL | GLUCOSE [3]: 149.5 mg/dL | LACTATE DEHYDROGENASE [3]: 446 u/L | LIPASE [3]: 8.5 u/L | PHOSPHORUS [3]: 13.45 mg/dL | POTASSIUM [3]: 6.05 MEQ/L | SODIUM [3]: 147.25 MEQ/L | TOTAL BILIRUBIN [3]: 0.2 mg/dL | TOTAL PROTEIN [3]: 6.15 G/DL | URIC ACID [3]: 0.95 mg/dL
